# Reference: patent publication US20260226047A1, “BENZIMIDAZOLE AND AZA-BENZIMIDAZOLE BASED IL-17A MODULATORS AND USES THEREOF” (DICE ALPHA, INC., priority 2023, published 2026)
# Biological target: T1, IL-17A/A (Homo sapiens, UniProt Q16552)
# T1 construct: purchased Genscript Z03228
# T1 sequence (Q16552 24-155): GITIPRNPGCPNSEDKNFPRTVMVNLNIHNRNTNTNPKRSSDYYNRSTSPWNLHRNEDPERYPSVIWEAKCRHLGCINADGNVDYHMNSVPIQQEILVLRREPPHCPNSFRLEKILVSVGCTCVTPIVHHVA
# Test: IL-17A/A HEK-Blue Cell Assay
# Type: cell-based
# Settings: IL-17A/A inhibition, HEK-Blue IL-17A reporter cell line, SEAP readout at A630, incubated for 20 hours
# Procedure: Example 3: IL-17A/A HEK-Blue Cell Assay
# The HEK-Blue IL-17A reporter cell line (Fisher #NC1408637) was used for cell-based IL-17A/A inhibition assays. Cells were grown and prepared for assays according to the manufacturer's instructions. This cell line consists of HEK 293 cells that were designed to expressed IL-17RA, IL-17RC, and the ActI adapter molecule, the combination of which, when stimulated by IL-17A/A activates a NFκB promoter and drives expression of a recombinant Secreted Alkaline Phosphatase (SEAP) gene protein. Media from the cells is then added to a development reagent (Quanti-Blue Substrate, Fisher #NC9711613), and read at A630.
# Compounds were titrated in DMSO, with a top final compound concentration of 10 μM, 1 uM, or 0.3 μM, and added to the cells immediately before adding IL-17A/A (Genscript #Z03228). The cells, compound, and IL-17A/A were then incubated for 20 hours before media was removed for SEAP analysis. The resulting inhibition curve was then analyzed using Graphpad Prism 7.0, and IC50 values were determined using a 4-parameter nonlinear fit. DMSO was added to a universal final concentration of 0.1% to optimize background.
row,IC50 [nM],SMILES
1,100 to 1000,"CCn1nccc1C(=O)N[C@H](c1nc2c(F)c(CC3CCNC3=O)ccc2[nH]1)C(C1CC1)C1CC1 (mixture of isomers) [Compound 2, N-((1S)-2,2-dicyclopropyl-1-(7-fluoro-6-((2-oxopyrrolidin-3-yl)methyl)-1H-benzo[d]imidazol-2-yl)ethyl)-1-ethyl-1H-pyrazole-5-carboxamide]"
2,> 1000,CCn1nccc1C(=O)NC(c1nc2nc(CC3CCNC3=O)ccc2[nH]1)C1CCC(F)(F)CC1 (mixture of isomers) [Compound 9]
3,100 to 1000,"CCn1nccc1C(=O)N[C@H](c1nc2c(F)c(C[C@H]3CCNC3=O)ccc2[nH]1)C(C1CC1)C1CC1 (single isomer, unassigned) [Compound 1]"
4,< 100,"CCn1nccc1C(=O)N[C@H](c1nc2cc(C[C@H]3C[C@@H](C(F)(F)F)NC3=O)ccc2[nH]1)C(C1CC1)C1CC1 (single isomer, unassigned) [Compound 3]"
5,100 to 1000,"CCn1nccc1C(=O)N[C@H](c1nc2cc(C[C@@H]3C[C@@H](C(F)(F)F)NC3=O)ccc2[nH]1)C(C1CC1)C1CC1 (single isomer, unassigned) [Compound 4]"
6,> 1000,"CCn1nccc1C(=O)N[C@H](c1nc2cc(C[C@@H]3C[C@H](C(F)(F)F)NC3=O)ccc2[nH]1)C(C1CC1)C1CC1 (single isomer, unassigned) [Compound 5]"
7,100 to 1000,"CCn1nccc1C(=O)N[C@H](c1nc2c(F)c(CC3CCC(C(F)(F)F)NC3=O)ccc2[nH]1)C(C1CC1)C1CC1 (single isomer, unassigned) [Compound 47]"
8,> 1000,"CCn1nccc1C(=O)N[C@H](c1nc2c(F)c(CC3CCC(C(F)(F)F)NC3=O)ccc2[nH]1)C(C1CC1)C1CC1 (single isomer, unassigned) [Compound 48]"
9,> 1000,"CCn1nccc1C(=O)N[C@H](c1nc2c(F)c(CC3CCC(C(F)(F)F)NC3=O)ccc2[nH]1)C(C1CC1)C1CC1 (single isomer, unassigned) [Compound 49]"
10,< 100,"CCn1nccc1C(=O)N[C@H](c1nc2c(F)c(CC3CCC(C(F)(F)F)NC3=O)ccc2[nH]1)C(C1CC1)C1CC1 (single isomer, unassigned) [Compound 50]"
11,100 to 1000,"CCn1nccc1C(=O)N[C@H](c1nc2c(F)c(CC3CCC(C(F)(F)F)NC3=O)ccc2[nH]1)C(C1CC1)C1CC1 (single isomer, unassigned) [Compound 51]"
12,< 100,CCn1nccc1C(=O)N[C@H](c1nc2cc(C[C@H]3CCNC3=O)ccc2[nH]1)C1CCCCCC1 [Compound 6]
13,100 to 1000,CCn1nccc1C(=O)N[C@H](c1nc2cc(C[C@H]3CCNC3=O)ccc2[nH]1)C1CCC(F)(F)CC1 [Compound 7]
14,> 1000,CCn1nccc1C(=O)N[C@H](c1nc2cc(C[C@@H]3CCNC3=O)ccc2[nH]1)C1CCC(F)(F)CC1 [Compound 8]
15,> 1000,CCn1nccc1C(=O)N[C@H](c1nc2nc(C[C@H]3CCNC3=O)ccc2[nH]1)C1CCC(F)(F)CC1 [Compound 10]
16,100 to 1000,CCn1nccc1C(=O)N[C@H](c1nc2c(F)c(CC3CCNC3=O)ccc2[nH]1)C1CCC(F)(F)CC1 (stereo partly shown) [Compound 11]
17,> 1000,CCn1nccc1C(=O)N[C@H](c1nc2c(F)c(C[C@@H]3CCNC3=O)ccc2[nH]1)C1CCC(F)(F)CC1 [Compound 12]
18,100 to 1000,CCn1nccc1C(=O)N[C@H](c1nc2cc(C[C@H]3CCNC3=O)cc(F)c2[nH]1)C1CCC(F)(F)CC1 [Compound 13]
19,> 1000,CCn1nccc1C(=O)N[C@H](c1nc2cc(C[C@@H]3CCNC3=O)cc(F)c2[nH]1)C1CCC(F)(F)CC1 [Compound 14]
20,100 to 1000,CCn1nccc1C(=O)N[C@H](c1nc2cc(CC3CCNC3=O)ccc2[nH]1)C(C1CC1)C1CC1 (stereo partly shown) [Compound 15]
21,100 to 1000,CCn1nccc1C(=O)N[C@H](c1nc2cc(C[C@H]3CCNC3=O)ccc2[nH]1)C(C1CC1)C1CC1 [Compound 16]
22,100 to 1000,CCn1nccc1C(=O)N[C@H](c1nc2ccc(CC3CCCNC3=O)cc2[nH]1)C(C1CC1)C1CC1 (stereo partly shown) [Compound 17]
23,> 1000,CCn1nccc1C(=O)N[C@H](c1nc2ccc(C[C@@H]3CCCNC3=O)cc2[nH]1)C(C1CC1)C1CC1 [Compound 18]
24,> 1000,CCn1nccc1C(=O)N[C@H](c1nc2ccc(CC3(C)CCNC3=O)cc2[nH]1)C(C1CC1)C1CC1 (stereo partly shown) [Compound 19]
25,100 to 1000,CCn1nccc1C(=O)N[C@H](c1nc2ccc(CC3(C)CCNC3=O)cc2[nH]1)C(C1CC1)C1CC1 (stereo partly shown) [Compound 20]
26,100 to 1000,CCn1nccc1C(=O)N[C@H](c1nc2cc(C(C)C3CCNC3=O)ccc2[nH]1)C(C1CC1)C1CC1 (stereo partly shown) [Compound 21]
27,> 1000,CCn1nccc1C(=O)N[C@H](c1nc2cc(C(C)C3CCNC3=O)ccc2[nH]1)C(C1CC1)C1CC1 (stereo partly shown) [Compound 22]
28,> 1000,CCn1nccc1C(=O)N[C@H](c1nc2cc(C(C)C3CCNC3=O)ccc2[nH]1)C(C1CC1)C1CC1 (stereo partly shown) [Compound 23]

row,IC50 [nM],SMILES
1,> 1000,CCn1nccc1C(=O)N[C@H](c1nc2cc(C(C)C3CCNC3=O)ccc2[nH]1)C(C1CC1)C1CC1 (stereo partly shown) [Compound 24]
2,100 to 1000,CCc1nonc1C(=O)N[C@H](c1nc2ccc(C[C@H]3CCNC3=O)cc2[nH]1)C1CCC(F)(F)CC1 [Compound 25]
3,> 1000,CCn1nccc1C(=O)N[C@H](c1nc2cc(C)c(CC3CCNC3=O)cc2[nH]1)C(C1CC1)C1CC1 (stereo partly shown) [Compound 26]
4,> 1000,CCn1nccc1C(=O)N[C@H](c1nc2cc(C[C@@H]3CCNC3=O)ccc2[nH]1)C(C1CC1)C1CC1 [Compound 27]
5,> 1000,CCn1nccc1C(=O)N[C@@H](c1nc2nc(C[C@H]3CCNC3=O)ccc2[nH]1)C1CCC(F)(F)CC1 [Compound 28]
6,> 1000,CCn1nccc1C(=O)N[C@@H](c1nc2nc(CC3CCNC3=O)ccc2[nH]1)C1CCC(F)(F)CC1 (stereo partly shown) [Compound 29]
7,> 1000,CCn1nccc1C(=O)N[C@H](c1nc2nc(CC3CCNC3=O)ccc2[nH]1)C1CCC(F)(F)CC1 (stereo partly shown) [Compound 30]
8,> 1000,CCn1nccc1C(=O)N[C@H](c1nc2cc(C[C@@H]3CCNC3=O)cc(F)c2[nH]1)C(C1CC1)C1CC1 [Compound 31]
9,100 to 1000,CCn1nccc1C(=O)N[C@H](c1nc2cc(C[C@H]3CCNC3=O)cc(F)c2[nH]1)C(C1CC1)C1CC1 [Compound 32]
10,100 to 1000,CCn1nccc1C(=O)N[C@H](c1nc2cc(CC3CC(C(F)(F)F)NC3=O)cc(F)c2[nH]1)C(C1CC1)C1CC1 (stereo partly shown) [Compound 33]
11,< 100,CCn1nccc1C(=O)N[C@H](c1nc2cc(C[C@H]3C[C@@H](C(F)(F)F)NC3=O)cc(F)c2[nH]1)C(C1CC1)C1CC1 [Compound 34]
12,100 to 1000,CCn1nccc1C(=O)N[C@H](c1nc2ccc(C[C@H]3CCCNC3=O)cc2[nH]1)C(C1CC1)C1CC1 [Compound 35]
13,> 1000,CCn1nccc1C(=O)N[C@H](c1nc2ccc(C[C@@H]3CCCNC3=O)c(F)c2[nH]1)C(C1CC1)C1CC1 [Compound 36]
14,100 to 1000,CCn1nccc1C(=O)N[C@H](c1nc2c(F)c(C[C@@H]3C[C@@H](C(F)(F)F)NC3=O)ccc2[nH]1)C(C1CC1)C1CC1 [Compound 37]
15,100 to 1000,CCn1nccc1C(=O)N[C@H](c1nc2c(F)c(C[C@H]3C[C@H](C(F)(F)F)NC3=O)ccc2[nH]1)C(C1CC1)C1CC1 [Compound 38]
16,> 1000,CCn1nccc1C(=O)N[C@H](c1nc2c(F)c(CC3CC(C(F)(F)F)NC3=O)ccc2[nH]1)C(C1CC1)C1CC1 (stereo partly shown) [Compound 39]
17,< 100,CCn1nccc1C(=O)N[C@H](c1nc2c(F)c(C[C@H]3C[C@@H](C(F)(F)F)NC3=O)ccc2[nH]1)C(C1CC1)C1CC1 [Compound 40]
18,100 to 1000,CCn1nccc1C(=O)N[C@H](c1nc2cc(CC3CC(C(F)(F)F)NC3=O)cc(F)c2[nH]1)C(C1CC1)C1CC1 (stereo partly shown) [Compound 41]
19,> 1000,CCn1nccc1C(=O)N[C@H](c1nc2cc(CC3CC(C(F)(F)F)NC3=O)cc(F)c2[nH]1)C(C1CC1)C1CC1 (stereo partly shown) [Compound 42]
20,100 to 1000,CCn1nccc1C(=O)N[C@H](c1nc2cc(CC3CCC(C(F)(F)F)NC3=O)ccc2[nH]1)C(C1CC1)C1CC1 (stereo partly shown) [Compound 43]
21,> 1000,CCn1nccc1C(=O)N[C@H](c1nc2cc(CC3CCC(C(F)(F)F)NC3=O)ccc2[nH]1)C(C1CC1)C1CC1 (stereo partly shown) [Compound 44]
22,100 to 1000,CCn1nccc1C(=O)N[C@H](c1nc2cc(CC3CCC(C(F)(F)F)NC3=O)ccc2[nH]1)C(C1CC1)C1CC1 (stereo partly shown) [Compound 45]
23,> 1000,CCn1nccc1C(=O)N[C@H](c1nc2cc(CC3CCC(C(F)(F)F)NC3=O)ccc2[nH]1)C(C1CC1)C1CC1 (stereo partly shown) [Compound 46]
24,100 to 1000,CCn1nccc1C(=O)N[C@H](c1nc2cc(CC3CCC(C(F)(F)F)NC3=O)cc(F)c2[nH]1)C(C1CC1)C1CC1 (stereo partly shown) [Compound 52]
25,100 to 1000,CCn1nccc1C(=O)N[C@H](c1nc2cc(CC3CCC(C(F)(F)F)NC3=O)cc(F)c2[nH]1)C(C1CC1)C1CC1 (stereo partly shown) [Compound 53]
26,> 1000,CCn1nccc1C(=O)N[C@H](c1nc2cc(CC3CCC(C(F)(F)F)NC3=O)cc(F)c2[nH]1)C(C1CC1)C1CC1 (stereo partly shown) [Compound 54]
27,> 1000,CCn1nccc1C(=O)N[C@H](c1nc2cc(CC3CCC(C(F)(F)F)NC3=O)cc(F)c2[nH]1)C(C1CC1)C1CC1 (stereo partly shown) [Compound 55]
